In patent publication US9486546B2, “Methods and compositions for radiohalogen protein labeling” (Genentech, Inc., priority 2012, dated 2016):

Experiment: Water solubility of labeling precursor
Format: physicochemical
Settings: aqueous 0.1% acetic acid
Text: The radiochemical strategy shown on FIG. 3 uses the mild, water soluble oxidant, N-chlorosuccinimide, to achieve iodination on the hydroxyphenyl group of 4. […] Even though much greater radiochemical yield was possible by increasing the ratio of 4 to Na^125I, the highest possible specific activity of the radiolabeled intermediate 5 and higher conjugation yields was facilitated by avoiding saturation of available reduced thiols. The intermediate 5 was easily purified from free iodide and oxidant using reverse-phase solid-phase extraction cartridges. Acid deprotection yielded the triacid 6, with completeness of reaction monitored by reverse-phase radio-HPLC (FIG. 3). This 4-hydroxy-3-iodophenyl derivative of DOTA, 6, was designated [^125I] HIP-DOTA. After exhaustive removal of acid by repeated evaporation of toluene, the thiol-containing antibody could be introduced for thiol-maleimide coupling. Remaining free thiols in the radioimmunoconjugate were capped with iodoacetic acid to avoid dimerization or formation of adducts with thiol containing plasma or endogenous proteins. All radioimmunoconjugates were analyzed for purity by size-exclusion HPLC and compared to the profile of unlabeled antibodies, such as trastuzumab.

Water solubility: sufficiently water soluble
SMILES: CC(C)(C)OC(=O)CN1CCN(CC(=O)NCCN(CC(=O)NCC(=O)NCCN2C(=O)C=CC2=O)C(=O)Cc2ccc(O)cc2)CCN(CC(=O)OC(C)(C)C)CCN(CC(=O)OC(C)(C)C)CC1 [compound 4, tri-tert-butyl 2,2′,2″-(10-(14-(2,5-dioxo-2,5-dihydro-1H-pyrrol-1-yl)-6-(2-(4-hydroxyphenyl)acetyl)-2,8,11-trioxo-3,6,9,12-tetraazatetradecyl)-1,4,7,10-tetraazacyclododecane-1,4,7-triyl)triacetate]
